# In patent US20210038732A1, “ANTICANCER MICRORNA AND LIPID FORMULATIONS THEREOF” (INTERNA TECHNOLOGIES B.V., priority 2018, published 2021):
# How the values were obtained:
# CT26 Colon carcinoma = test: Primary tumor growth, syngeneic model; format: in vivo, mice; conditions: 10 mg/kg i.v BIW x 3-4 weeks, vs PBS
# Description: (§1) In this study, the effect of miRNA-193a formulated in diamino lipid nanoparticles was investigated on the primary tumor growth in a panel of twelve syngeneic tumor models. Six to eight weeks mice (Shanghai Lingchang Bio-Technology Co. Ltd, Shanghai, China) were subcutaneously injected with an appropriate number of syngeneic cancer cells, depending on the cancer model (see Table 18). At the time of randomization, tumor volume (TV) was approximately 80-120 mm^3. Body weights and TVs (caliper measurements) were determined 2-3 times/week. After randomization (indicated as day 0) mice received PBS or miR-193a (formulated in diamino lipid nanoparticles) treatments as shown in Table 19. Each tumor model had two groups as depicted in Table 19. Mice were scheduled to be euthanized after two weeks of follow up after a maximum of four weeks of treatment.
# [1] = tested on: A20 Reticulum cell sarcoma (lymphoma); test: Primary tumor growth, syngeneic model; format: in vivo, mice; conditions: 10 mg/kg i.v BIW x 3-4 weeks, vs PBS
# Description: as §1
# Hepa 1-6 Hepatoma = test: Primary tumor growth, syngeneic model; format: in vivo, mice; conditions: 10 mg/kg i.v BIW x 3-4 weeks, vs PBS
# Description: as §1
# [2] = tested on: Renca Renal adenocarcinoma; test: Primary tumor growth, syngeneic model; format: in vivo, mice; conditions: 10 mg/kg i.v BIW x 3-4 weeks, vs PBS
# Description: as §1
# H22 Hepatocarcinoma = test: Primary tumor growth, syngeneic model; format: in vivo, mice; conditions: 10 mg/kg i.v BIW x 3-4 weeks, vs PBS
# Description: as §1
# [3] = tested on: EMT-6 Breast mammary carcinoma; test: Primary tumor growth, syngeneic model; format: in vivo, mice; conditions: 10 mg/kg i.v BIW x 3-4 weeks, vs PBS
# Description: as §1
# RM-1 Prostate cancer = test: Primary tumor growth, syngeneic model; format: in vivo, mice; conditions: 10 mg/kg i.v BIW x 3-4 weeks, vs PBS
# Description: as §1
# B16-F10 Melanoma = test: Primary tumor growth, syngeneic model; format: in vivo, mice; conditions: 10 mg/kg i.v BIW x 3-4 weeks, vs PBS
# Description: as §1
# B16-BL6 Melanoma = test: Primary tumor growth, syngeneic model; format: in vivo, mice; conditions: 10 mg/kg i.v BIW x 3-4 weeks, vs PBS
# Description: as §1
# LL/2 Lung carcinoma = test: Primary tumor growth, syngeneic model; format: in vivo, mice; conditions: 10 mg/kg i.v BIW x 3-4 weeks, vs PBS
# Description: as §1
# [4] = tested on: Pan02 Pancreatic adenocarcinoma; test: Primary tumor growth, syngeneic model; format: in vivo, mice; conditions: 10 mg/kg i.v BIW x 3-4 weeks, vs PBS
# Description: as §1
# MC38 Colon carcinoma = test: Primary tumor growth, syngeneic model; format: in vivo, mice; conditions: 10 mg/kg i.v BIW x 3-4 weeks, diamino lipid nanoparticles, vs PBS, median tumor volume
# Description: as §1
# EMT6 = test: Cell viability (MTS assay or cell count); format: cell-based; conditions: 10 nM; TNBC EMT6; normalized to mock
# Procedure: Depending on cancer cell type 3000-6000 cells were seeded in a 96 well plate. After cells attached, they were transfected with different concentrations of miRNA-193a and viability was measured at different time points. Viability measurement was performed using CellTiter 96 AQueous One Solution Cell Proliferation Assay (Promega). 20 μL of MTS reagent was added to 100 μL of media in each well in 96-well plate and incubated for 2 hours at 37° C. Absorbance was measured at 490 nm for each sample in 96 well plate reader.
# Different biological effects of miRNA-193a-3p have been tested in various cancer cell lines (see Table 13). For this, various cells were treated with miRNA-193a at different concentrations (1, 3, 10 nM). For all experiments controls (untreated, mock and scrambled) were measured. […] Data shown in Table 13 are the results for miRNA-193a at 10 nM concentration at indicated time points. All the results have been quantified and normalized to the mock control.
# miRNA-193a treatment in various cancer cell lines decreased cell viability over time as measured by either an MTS assay or by cell count. It enhanced apoptosis induction over time as measured by a caspase 3/7 apoptosis assay. […] It is of note that due to intrinsic characteristics and gene mutation status of each cell line, performing one method to detect apoptosis is not always ideal for all cell lines.
# 4T1 mouse tumor cells = test: 4T1 re-challenge of previously treated mice, with or without T-cell depletion (Example 4.11); format: in vivo
# Description: In all cases, monoclonal antibodies were delivered to mice by intraperitoneal injection in 200p1 phosphate-buffered saline. For depletion and neutralization experiments, CD4 (clone GK1.5) and CD8 (clone 2.43) antibodies were used simultaneously. Depletion or neutralization was commenced a week before tumor cell inoculation. For CD4+ and CD8+ T-cell depletion, […] of the indicated antibody was delivered on a QOD×3 schedule in the first week and then a Q3D schedule for 3 more weeks. Depletion of the desired T-cell population(s) was confirmed on whole blood by flow cytometry (data not shown). 100 μL whole blood was drawn per animal on day 0 and day 14 post tumor cell inoculation (day 0=24h post QOD×3, Day 14: 24h post QOD×3+Q3D for 2 weeks). Then mixed with the antibodies. After vortexing gently, the mix was incubated for 30 minutes in the dark at room temperature (RT). 2 ml of 1× FACS lysing buffer was added to the solution and incubated for 10 min at RT. Then the solution mix was centrifuged for 5 min and the supernatant was removed. Finally, the cells were resuspended in 150p1 of staining buffer and analyzed on a cytometer. All flow cytometry antibodies (anti-CD45-PerCP-cy55 (clone: 30-F11), anti-CD3-FITC (clone: 17A2) anti-CD4-APC (clone: RM4-4), anti-CD8-PE (clone: 53-6.7) were purchased from Biolegend except anti-CD3 from BD Biosciences. (QOD×3: every other day for 3 days, Q3D: every 3 days (Monday-Thursday)).
# To investigate the T-cell mediated long-term immunity in miRNA-193a treated mice against 4T1 cancer cells, a new study with similar conditions to example 4.4 was performed. 5 days post-tumor inoculation, mice were randomized into 2 groups and received a similar treatment and dosing regimen as in example 4.4 (see Table 9, groups 1-2 only). After surgical removal of primary tumors when the group mean tumor volume reached 800 mm3, treatments were resumed and continued until day 58. […]
substance,measurement,setting,value
"miRNA-193a: duplex of the miRNA-193a-3p of SEQ ID NO: 218 (mimic, sense) with antisense strand SEQ ID NO: 219; naked in vitro, formulated in vivo (sense UGGGACUUUGUAGGCCAGUUTT; antisense AACUGGCCUACAAAGUCCCAGU; chemistry not given here; listed as Homo sapiens)",% TGI by miRNA-193a,CT26 Colon carcinoma,12%
same,% TGI by miRNA-193a,[1],54%
same,% TGI by miRNA-193a,Hepa 1-6 Hepatoma,7%
same,% TGI by miRNA-193a,[2],22%
same,% TGI by miRNA-193a,H22 Hepatocarcinoma,45%
same,% TGI by miRNA-193a,[3],42%
same,% TGI by miRNA-193a,RM-1 Prostate cancer,25%
same,% TGI by miRNA-193a,B16-F10 Melanoma,56%
same,% TGI by miRNA-193a,B16-BL6 Melanoma,34%
same,% TGI by miRNA-193a,LL/2 Lung carcinoma,64%
same,% TGI by miRNA-193a,[4],46%
same,% TGI by miRNA-193a,MC38 Colon carcinoma,71%
same,Viability (96 h),EMT6,↓↓ (Viability < 50%)
same,4T1 tumor growth after second re-challenge,4T1 mouse tumor cells; previously treated mice depleted for T cells (anti-CD4 + anti-CD8),resulted in 4T1 tumor growth
same,4T1 tumor growth after second re-challenge,4T1 mouse tumor cells; previously treated mice not depleted for T cells,did not show a palpable 4T1 tumor
same,Tumor re-growth after 4T1 re-challenge,"4T1 mouse tumor cells; re-challenge day 76, followed up to 3 weeks, vs naïve mice",did not develop any palpable tumor
